From ChEMBL document CHEMBL1201862, “PubChem BioAssay data set” (2004)
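Test compounds were applied to cells in 96-well plates for 48 hours at 5 doses. Here, GI50 denotes the concentration required for 50% inhibition of growth.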 Active and inactive are the calls of the source. No stated cut-off is given here; in the data, active = GI50 up to about 1.1 µM and inactive = higher.

What was measured:
Assay in all cases: NCI anticancer screen, dose series, 48 h
OVCAR-4 = tested on: OVCAR-4
U-251 = tested on: U-251
K562 = tested on: K562
SK-OV-3 = tested on: SK-OV-3
OVCAR-5 = tested on: OVCAR-5
UO-31 = tested on: UO-31
IGROV-1 = tested on: IGROV-1
SN12C = tested on: SN12C
SF-295 = tested on: SF-295
NCI-H23 = tested on: NCI-H23
OVCAR-3 = tested on: OVCAR-3
HL-60 = tested on: HL-60
OVCAR-8 = tested on: OVCAR-8
HCT-15 = tested on: HCT-15
UACC-62 = tested on: UACC-62
NCI-H460 = tested on: NCI-H460
A549 = tested on: A549
SW-620 = tested on: SW-620
SK-MEL-5 = tested on: SK-MEL-5
A498 = tested on: A498

SMILES | GI50 (OVCAR-4) | GI50 (U-251) | GI50 (K562) | GI50 (SK-OV-3) | GI50 (OVCAR-5) | GI50 (UO-31) | GI50 (IGROV-1) | GI50 (SN12C) | GI50 (SF-295) | GI50 (NCI-H23) | GI50 (OVCAR-3) | GI50 (HL-60) | GI50 (OVCAR-8) | GI50 (HCT-15) [µM] | GI50 (UACC-62) | GI50 (NCI-H460) | GI50 (A549) | GI50 (SW-620) | GI50 (SK-MEL-5) | GI50 (A498)
CC1(C)CCC(C)(C)c2c1ccc(O)c2Cc1c(O)ccc2c1C(C)(C)CCC2(C)C | 1.81 µM (inactive) | 1.78 µM (inactive) | 2.19 µM (inactive) | 2.3 µM (inactive) | 2.25 µM (inactive) | 1.92 µM (inactive) | 1.97 µM (inactive) | 1.82 µM (inactive) | 2.45 µM (inactive) | 2.04 µM (inactive) | 2.21 µM (inactive) | 2.76 µM (inactive) | 2.13 µM (inactive) | 1.92 | 2.02 µM (inactive) | 2.47 µM (inactive) | 2.27 µM (inactive) | 2.18 µM (inactive) | 1.87 µM (inactive) | 1.79 µM (inactive)
C=CS(=O)(=O)c1c2cc(OC)ccc2nc2ccc(OC)cc12 | 13.1 µM (inactive) | 7.05 µM (inactive) | 4.39 µM (inactive) | 17.7 µM (inactive) | 6.14 µM (inactive) | 3.08 µM (inactive) | 2.92 µM (inactive) | 2.88 µM (inactive) | 15 µM (inactive) | 4.02 µM (inactive) | 2.82 µM (inactive) | 7.96 µM (inactive) | 3.6 µM (inactive) | 3.31 | 12.2 µM (inactive) | 5.12 µM (inactive) | 17.1 µM (inactive) | 3.12 µM (inactive) | 14.1 µM (inactive) | 12.7 µM (inactive)
Cc1cc(Cl)ccc1NC1=NC(=O)C(CC(=O)Nc2cccc(Cl)c2)S1 (centres undefined) | 29.2 µM (inactive) | 33.2 µM (inactive) | 13.8 µM (inactive) | 42.5 µM (inactive) | 16.1 µM (inactive) | 29.7 µM (inactive) | 40.3 µM (inactive) | 53.5 µM (inactive) | 18.5 µM (inactive) | 12.9 µM (inactive) | 43 µM (inactive) | 9.16 µM (inactive) | > 100 µM (inactive) | 32.1 | 22.2 µM (inactive) | 62.2 µM (inactive) | 20.8 µM (inactive) | 67 µM (inactive) | 24.9 µM (inactive) | 23.8 µM (inactive)
CC(=O)NNc1nc(C)c(C(=O)NNC(=O)C(=O)Nc2cccc(C(C)=O)c2)s1 | 25.2 µM (inactive) | 26.6 µM (inactive) | 32.1 µM (inactive) | 18.3 µM (inactive) | > 100 µM (inactive) | 17.1 µM (inactive) | 26.5 µM (inactive) | 15.9 µM (inactive) | 31.4 µM (inactive) | 17.5 µM (inactive) |  | 25.5 µM (inactive) | 20 µM (inactive) | 21.2 | 16.3 µM (inactive) | 12.7 µM (inactive) | 34.8 µM (inactive) | 39.5 µM (inactive) | 95.3 µM (inactive) | 20.7 µM (inactive)
O=C1NCN(c2ccccc2)C12CCN(CCCN1CCN(CCOC(c3ccc(F)cc3)c3ccc(F)cc3)CC1)CC2 | 2.92 µM (inactive) | 1.92 µM (inactive) | 0.91 µM (active) | 2.22 µM (inactive) | 3.15 µM (inactive) | 1.74 µM (inactive) | 1.98 µM (inactive) | 1.96 µM (inactive) | 1.83 µM (inactive) | 3.51 µM (inactive) | 2.03 µM (inactive) | 1.48 µM (inactive) | 2.15 µM (inactive) | 2.23 | 2.05 µM (inactive) | 2 µM (inactive) | 2.03 µM (inactive) | 2.61 µM (inactive) | 1.69 µM (inactive) | 1.84 µM (inactive)
CCCCP1(=O)C=CC(Cl)=C(C)C1 (centres undefined) | > 100 µM (inactive) | > 100 µM (inactive) | > 100 µM (inactive) |  | > 100 µM (inactive) | > 100 µM (inactive) | > 100 µM (inactive) | > 100 µM (inactive) | > 100 µM (inactive) | > 100 µM (inactive) | > 100 µM (inactive) | > 100 µM (inactive) | > 100 µM (inactive) | > 100 | > 100 µM (inactive) | > 100 µM (inactive) | > 100 µM (inactive) | > 100 µM (inactive) | > 100 µM (inactive) | > 100 µM (inactive)
C=CCN(N=O)C(=O)N(CCC)CCCCC(NC(C)=O)C(=O)NCc1ccccc1 (centres undefined) | 64.1 µM (inactive) | > 100 µM (inactive) | 51.6 µM (inactive) | > 100 µM (inactive) | > 100 µM (inactive) | 88.1 µM (inactive) | > 100 µM (inactive) | > 100 µM (inactive) | > 100 µM (inactive) | > 100 µM (inactive) | 75.5 µM (inactive) | 21 µM (inactive) | > 100 µM (inactive) | > 100 | > 100 µM (inactive) | > 100 µM (inactive) | > 100 µM (inactive) | > 100 µM (inactive) | 67.9 µM (inactive) | > 100 µM (inactive)
COC(=O)C1CCC(=O)N1C(=O)Cc1ccc(OC)cc1 (centres undefined) | > 100 µM (inactive) | > 100 µM (inactive) |  | > 100 µM (inactive) | > 100 µM (inactive) | > 100 µM (inactive) | > 100 µM (inactive) | > 100 µM (inactive) | > 100 µM (inactive) | > 100 µM (inactive) | > 100 µM (inactive) |  | > 100 µM (inactive) | > 100 | > 100 µM (inactive) | > 100 µM (inactive) | > 100 µM (inactive) | > 100 µM (inactive) | > 100 µM (inactive) | > 100 µM (inactive)
c1ccc(/N=C2\S/C(=N\C3CCCCC3)N(C3CCCCC3)\C2=N/c2ccccc2)cc1 |  | > 100 µM (inactive) | > 100 µM (inactive) | > 100 µM (inactive) | > 100 µM (inactive) | > 100 µM (inactive) | > 100 µM (inactive) | > 100 µM (inactive) | > 100 µM (inactive) | > 100 µM (inactive) | > 100 µM (inactive) | > 100 µM (inactive) | > 100 µM (inactive) | > 100 | > 100 µM (inactive) | > 100 µM (inactive) |  |  | 80.4 µM (inactive) | > 100 µM (inactive)
c1ccc(COC2(OCc3ccccc3)CC3OC2C2NN=NC32)cc1 (centres undefined) | 17.9 µM (inactive) | 18.1 µM (inactive) | 15.6 µM (inactive) | > 100 µM (inactive) | > 100 µM (inactive) | 29.7 µM (inactive) | 28.6 µM (inactive) | > 10 µM (inactive) | 23.1 µM (inactive) | 17.5 µM (inactive) | 18.3 µM (inactive) | 11.1 µM (inactive) |  | 26 | 21.3 µM (inactive) | 46.1 µM (inactive) | 57.1 µM (inactive) | 12.5 µM (inactive) | 17.1 µM (inactive) | > 100 µM (inactive)
COc1ccc(C2C(Cl)C(=O)N2NC(=O)c2ccccc2O)cc1 (centres undefined) | > 100 µM (inactive) | > 100 µM (inactive) | > 100 µM (inactive) | > 100 µM (inactive) |  | > 100 µM (inactive) | > 100 µM (inactive) | > 100 µM (inactive) | > 100 µM (inactive) | > 100 µM (inactive) | > 100 µM (inactive) | > 100 µM (inactive) | > 100 µM (inactive) |  | > 100 µM (inactive) | > 100 µM (inactive) | > 100 µM (inactive) | > 100 µM (inactive) | > 100 µM (inactive) | 
